Laboratory results from ChEMBL document CHEMBL1156550, “Synthesis and pharmacological evaluation of pentacyclic 6a,7-dihydrodiindole and 2,3-dihydrodiindole derivatives as novel melatoninergic ligands” (Bioorg Med Chem, 2008).

Columns and labels:
[1] = molecular target: Melatonin receptor type 1A (Homo sapiens, UniProt P48039); assay: Displacement of 2-[125I]iodomelatonin from human melatonin MT1 receptor expressed in CHO cells; assay type: cell-based
[2] = molecular target: T1, Melatonin receptor type 1B (Homo sapiens, UniProt P49286); assay: Displacement of 2-[125I]iodomelatonin from human melatonin MT2 receptor expressed in CHO cells; assay type: cell-based
T1 sequence (P49286 whole entry): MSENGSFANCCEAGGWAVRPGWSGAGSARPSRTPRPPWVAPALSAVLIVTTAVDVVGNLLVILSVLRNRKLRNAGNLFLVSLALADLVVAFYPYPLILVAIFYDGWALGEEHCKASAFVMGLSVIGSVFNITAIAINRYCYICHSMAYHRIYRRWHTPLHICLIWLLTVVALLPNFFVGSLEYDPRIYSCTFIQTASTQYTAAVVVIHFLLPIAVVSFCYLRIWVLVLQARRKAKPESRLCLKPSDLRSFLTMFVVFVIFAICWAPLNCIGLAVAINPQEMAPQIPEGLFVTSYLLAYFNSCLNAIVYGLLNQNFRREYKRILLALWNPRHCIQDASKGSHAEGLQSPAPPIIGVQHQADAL

Homo sapiens = species on record: Homo sapiens; assay: Selectivity ratio of Ki for human melatonin MT1 receptor to Ki for human melatonin MT2 receptor

Sequence of Melatonin receptor type 1A (P48039 whole entry): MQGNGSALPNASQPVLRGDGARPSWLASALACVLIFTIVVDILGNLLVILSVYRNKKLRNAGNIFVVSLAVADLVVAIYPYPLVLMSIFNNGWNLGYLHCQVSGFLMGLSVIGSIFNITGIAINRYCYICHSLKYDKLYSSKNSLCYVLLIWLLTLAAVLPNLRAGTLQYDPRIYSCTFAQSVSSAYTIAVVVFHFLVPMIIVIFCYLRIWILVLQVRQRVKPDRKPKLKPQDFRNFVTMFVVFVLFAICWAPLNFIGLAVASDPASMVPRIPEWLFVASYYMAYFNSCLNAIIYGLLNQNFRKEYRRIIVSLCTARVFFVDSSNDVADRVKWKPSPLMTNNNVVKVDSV

| Ki [1] [nM] | Ki [2] [nM] | Ratio Ki (Homo sapiens) | SMILES |
| --- | --- | --- | --- |
| 17.5 | 36.2 | 0.48 | COc1ccc2[nH]c(CN3c4ccccc4CC3CO)c(CCNC(C)=O)c2c1 (racemic) |
| 34.5 | 33.6 | 1.03 | COc1ccc2c(c1)CC(CO)N2Cc1[nH]c2ccc(OC)cc2c1CCNC(C)=O (racemic) |
| 1800 | 410 | – | COc1ccc2c(c1)CC1Cn3c(c(CCNC(C)=O)c4cc(OC)ccc43)CN21 (stereo unspecified) |
| 1000 | 1700 | – | CC(=O)NCCc1c2n(c3ccccc13)CC1Cc3ccccc3N1C2 (stereo unspecified) |
| 319 | 65.2 | 4.89 | COc1ccc2c(c1)c(CCNC(C)=O)c1n2CC2Cc3ccccc3N2C1 (stereo unspecified) |
| 9.8 | 7.8 | 1.25 | COc1ccc2[nH]c(CN3c4ccccc4C[C@H]3CO)c(CCNC(C)=O)c2c1 |
